Results reported in US7235687B2, “Derivatives of 4,4′-dithiobis-(3-aminobutane-1-sulfphonates) and compositions containing same” (Institut National de la Sante et de la Recherche Medicale …, priority 2002, dated 2007).

System: Deoxycorticosterone acetate (DOCA)-salt hypertensive rats
Test: Effect on blood pressure in DOCA-salt hypertensive rats
Format: in vivo, rat
Conditions: DOCA-salt hypertensive male Wistar Kyoto rats; oral gavage in water at 15 mg/kg; 4.5 hours after administration
Method: Deoxycorticosterone acetate (DOCA)-salt hypertensive rats were obtained according to Pham, I. et al (1993) J. Pharmacol. Exp. Ther. 265, 1339–1347 with the following modifications: under pentobarbital anaesthesia, unilateral nephrectomy was performed in male Wistar Kyoto rats (300 g) and a pellet of 50 mg of DOCA was implanted s.c. After surgery, the rats were fed on standard rat chow and the drinking water was supplemented with 0.9% NaCl and 0.2% KCl. Hypertension developed 3 weeks after surgery.
To record arterial blood pressure, DOCA-salt rats were anaesthetized with pentobarbital sodium (50 mg/kg i.p., Sentravet laboratory, Plancoët, France), a femoral artery catheter (PE50) filled with heparinized saline (250 U/ml) was inserted, then brought under the skin and emerged at the nape of the neck. A flexible metal spring was attached to the skull and neck of the rat and connected to dual channel swivels mounted directly above the cage. This arrangement allowed the rat free movement inside the cage. […] Mean arterial BP was continuously recorded throughout each experiment using a COBE CDX III pressure transducer (Phymep, Paris, France) connected to the MacLab system (Phymep, Paris, France) composed of a MacLab technology unit and Chart software running on a Macintosh computer. […]

## Cl.Cl.NC(CCS(=O)(=O)[O-])CSSCC(N)CCS(=O)(=O)[O-].[Na+].[Na+] (stereo not shown) [Example 1, 4,4′ dithiobis (sodium 3-aminobutane-1-sulfonate) bis chlorohydrate]
  decrease of mean arterial blood pressure: 3680 Pa
